Experiments:
Type in all cases: in vivo, rat
[1] = test system: rats with spinal nerve ligature (Chung neuropathic pain model); assay: Chung spinal nerve ligation (L5 and L6) neuropathic pain model, thermal stimulation (Example 2); settings: for change of paw-withdrawal latency vs vehicle: morphine 16 mg/kg i.p.
Source text: (§1) The Chung neuropathic pain model (Kim and Chung, Pain, 50: 355-363, 1992), employs spinal nerve ligation (SNL) in a rat. Tight ligature of spinal nerves in a rat is associated with hyperalgesia, allodynia and spontaneous pain. Antihyperalgesics reduce these chronic signs of pain hypersensitivity. Thus, the Chung model permits testing of the antihyperalgesic activity of compounds in rats with neuropathic pain. The Chung model constitutes a model for peripheral neuropathic pain in humans, and was employed as follows.
(§2) Male Rj: Wistar (Han) rats, weighing 264-369 g at the beginning of the experiment, were obtained from Elevage Janvier, 53940 Le Genest-Saint-Isle, France. The rats were acclimatized to laboratory conditions for at least 5 days before the surgery phase of the experiment. The rats were housed in groups of five in macrolon cages (41×25×14 cm) on wood litter (Litalabo—SPPS, 95100 Argenteuil, France) with free access to food (code 113—SAFE, 91360 Epinay-sur-Orge, France) and water until tested. The animal houses were maintained under artificial lighting (12 hours) between 7:00 AM and 7:00 PM in a controlled ambient temperature of 21±3° C., and with relative humidity maintained at 40-70%.
(§3) Rats (264-369 g) were anesthetized with sodium pentobarbital (50 mg/kg i.p.), and an incision at the L4-S2 level was made to expose the left L5 and L6 spinal nerves. A ligature was tied tightly around each nerve. The wound was then sutured. The rats received an i.m. injection of 50,000 IU penicillin G and were allowed to recover. At least 2 weeks after the surgery, when the chronic state was fully installed, rats were submitted consecutively to tactile and thermal stimulation of both the non-lesioned and the lesioned hindpaws.
(§4) Doses of OPC-14523 were prepared in stock solutions (weight per volume, W/V), then in dilutions (volume per volume, V/V), as appropriate. The compound was dispersed in 0.5% tragacanth in distilled water. Morphine was dissolved in physiological saline as a reference standard for treatment of pain. The solutions for the test and reference substances were prepared fresh on the day of the experiment.
(§5) The vehicle, OPC-14523, and reference (morphine) compound were each administered in a volume of 5 ml/kg body weight. The doses of OPC-14523 were expressed in mg of substance per kg body weight and administered orally (p.o.). The vehicle control was also administered orally. The dose of morphine was expressed in mg of hydrochloride salt per kg body weight and administered i.p.
(§6) Each animal was tested at 30 minutes, 1 hour, 2 hours and 4 hours after the administration of a substance. Testing occurred in the morning.
(§7) To evaluate chronic drug administration and hypersensitivity induction, animals received a second substance treatment in the afternoon, after acute testing. The animals then received twice-daily substance treatment for an additional 9 days. To test for induction of hypersensitivity, the animals were tested, on the ninth day, 30 minutes before the first substance administration in the morning. The effect of chronic administration was tested on the tenth day 30 minutes, 1 hour, 2 hours and 4 hours after the administration of the substance in the morning.
An apparatus (Ugo Basile, Product reference: 7371, Comerio, Italy) consisted of six individual Plexiglas® boxes (17×11×14 cm) placed upon an elevated glass floor. A rat was placed in the box and left free to habituate for 10 minutes. Then, a mobile infrared radiant source was focused under the non-lesioned and lesioned hindpaws. The paw-withdrawal latencies were automatically recorded. Paw withdrawal interrupts the reflected radiation and switches off the counter and the light source. In order to prevent tissue damage, the test was terminated after 45 seconds if no reaction was noted.
Prior to receiving drug treatment, all animals were submitted to tactile stimulation and assigned to treatment groups, matched on the basis of their pain response. […]

[2] = test system: rats with spinal nerve ligature (Chung neuropathic pain model); assay: Chung neuropathic pain model, cold allodynia on cold plate (Example 3); settings: morphine 128 mg/kg p.o.; for change of total number of paw withdrawal responses: cold plate
Source text: (§8) The rats used in this experiment were the same rats used in Example 2. The materials and methods for this experiment were identical to those for Example 2 with the following exceptions: there was a 1-week washout between the two experiments, and the rats weighed 290-403 g at the start of this experiment. Prior to receiving drug treatment, all animals were submitted to tactile stimulation and assigned to treatment groups matched on the basis of their pain response. No account was taken of the treatment administered during the first experiment in assigning animals to treatment groups for this experiment.
(§9) All of the substances were administered orally. Morphine, dissolved in distilled water, was administered at 128 mg/kg dose p.o. Rats were tested 30 minutes, 1 hour, 2 hours, and 4 hours after administration of the substances.
Behavioral testing was carried out by measuring cold allodynia using an apparatus consisting of a cold plate maintained at 4±1° C. Rats were individually placed on the cold plate for a period of 5 minutes. The latency to the first paw withdrawal response and the number and total duration of withdrawal responses in 5 minutes were recorded for both the lesioned and the non-lesioned hindpaws.

[3] = test system: rats with spinal nerve ligature (Chung neuropathic pain model); assay: Chung spinal nerve ligation (L5 and L6) neuropathic pain model, tactile stimulation with electronic Von Frey probe (Example 2)
Source text: as §1, §2, §3, §4, §5, §6, §7
(§10) For tactile stimulation, the animal was placed under an inverted Plexiglas® box (17×11×14 cm) on a grid floor. The tip of an electronic Von Frey probe (Bioseb, Model 1610, Chaville, France) was applied with increasing pressure to the non-lesioned hindpaw or the lesioned hindpaw. The force required to induce paw withdrawal was automatically recorded. This procedure was carried out three times for each paw, and the mean force per paw was calculated to provide basic scores per animal.
Prior to receiving drug treatment, all animals were submitted to tactile stimulation and assigned to treatment groups, matched on the basis of their pain response. Each treatment group consisted of eight rats. The testing was performed blind. […]

[4] = test system: rats with spinal nerve ligature (Chung neuropathic pain model); assay: Chung neuropathic pain model, tactile stimulation, second experiment (Example 3); settings: acute, morphine 128 mg/kg p.o.; for change of force inducing paw withdrawal vs vehicle: lesioned paw
Protocol: as §10, §8, §9

[5] = hypersensitivity test after 8 days of twice daily administration, morphine

SMILES: CN1CC[C@]23c4c5ccc(O)c4O[C@H]2[C@@H](O)C=C[C@H]3[C@H]1C5 [Morphine, morphine, reference compound]
- change of paw-withdrawal latency vs vehicle ([1]; acute, lesioned paw, 30 minutes): +132%
- change of paw-withdrawal latency vs vehicle ([1]; acute, lesioned paw, 1 hour): +121%
- change of paw-withdrawal latency vs vehicle ([1]; acute, lesioned paw, 4 hours): +204%
- change of paw-withdrawal latency vs vehicle ([1]; acute, non-lesioned paw, 30 minutes, p<0.05): +15%
- change of paw-withdrawal latency vs vehicle ([1]; chronic, lesioned paw, 30 minutes, p<0.05): +108%
- change of paw-withdrawal latency vs vehicle ([1]; chronic, lesioned paw, 1 hour, p<0.05): 93%
- change of paw-withdrawal latency vs vehicle ([1]; chronic, non-lesioned paw, 2 hours, p<0.05): −24%
- change of paw-withdrawal latency vs vehicle ([1]; chronic, non-lesioned paw, 4 hours, p<0.05): −23%
- Paw Withdrawal Latency (s) Lesioned Paw [1, 5]: 11.7 (NS) s
- Paw Withdrawal Latency (s) Non-lesioned Paw [1, 5]: 34.5 (NS) s
- effect on paw-withdrawal latency of the first withdrawal ([2]; cold plate 4°C, not statistically significant): tended to increase
- change of total number of paw withdrawal responses ([2]; 30 minutes, p<0.001): −61%
- change of total number of paw withdrawal responses ([2]; 1 hour, p<0.05): −65%
- change of total number of paw withdrawal responses ([2]; 2 hours, p<0.01): −51%
- change of total number of paw withdrawal responses ([2]; 4 hours, p<0.01): −56%
- change of force inducing paw withdrawal vs vehicle ([3]; acute, morphine 16 mg/kg i.p., lesioned paw, 30 minutes): +206%
- change of force inducing paw withdrawal vs vehicle ([3]; acute, morphine 16 mg/kg i.p., lesioned paw, 1 hour): +124%
- effect on force inducing paw withdrawal ([3]; acute, morphine 16 mg/kg i.p., lesioned paw, 2 hours): tended to increase
- effect on force inducing paw withdrawal ([3]; acute, morphine 16 mg/kg i.p., non-lesioned paw): no effects
- change of force inducing paw withdrawal vs vehicle ([3]; chronic, day 10, morphine, lesioned paw, 30 minutes, p<0.01): +86%
- change of force inducing paw withdrawal vs vehicle ([3]; chronic, day 10, morphine, lesioned paw, 1 hour, p<0.001): +223%
- change of force inducing paw withdrawal vs vehicle ([3]; chronic, day 10, morphine, lesioned paw, 2 hours, p=0.09): −50%
- effect on force inducing paw withdrawal ([3]; chronic, day 10, morphine, non-lesioned paw): weak, variable effects
- Force Inducing Paw Withdrawal (g) Lesioned Paw [3, 5]: 15.1 (NS) g
- Force Inducing Paw Withdrawal (g) Non-lesioned Paw [3, 5]: 73.7 (NS) g
- effect on force inducing paw withdrawal vs vehicle control ([3]; hypersensitivity test, repeated treatment with morphine, lesioned or non-lesioned paw): no significant effects
- change of force inducing paw withdrawal vs vehicle ([4]; 30 minutes, p<0.05): +137%
- change of force inducing paw withdrawal vs vehicle ([4]; 1 hour, p<0.01): +198%
- change of force inducing paw withdrawal vs vehicle ([4]; 2 hours, p=0.05): +168%
- effect on force inducing paw withdrawal ([4]; non-lesioned paw): no effects

Source: patent US20070142396A1, “Treatment of pain with 1-[3-[4-(3-chlorophenyl)-1-piperazinyl]propyl]-5-methoxy-3,4-dihydro-2(1H)-quinolone or salt thereof” (Vela Pharmaceuticals, Inc., priority 2005, published 2007)
